The text below walks through data of PMC7576778, “The tomato receptor CuRe1 senses a cell wall protein to identify Cuscuta as a pathogen” (Nature Communications, 2020).

“And” between values parts separate entries of the source, which are not always exact repeats. Equal values may be shown once. Where only a bound is given, the exact number is not on record here.

In series [1] the target is Cuscuta Receptor 1 (CuRe1), myc-tagged (tomato (Solanum lycopersicum)).
Series [2] concerns CuRe1. The series can be described thus: Ethylene bioassay, leaf pieces of transgenic CuRe1-expressing N. benthamiana. In kind it is cell-based, S. lycopersicum (tomato), expressed in N. benthamiana. Set-up: ethylene measurement, average: unit not given here. As to conditions: for activity in CuRe1-dependent ethylene induction (in words) / concentration at which ethylene production is triggered (minimum effective concentration): CuRe1-expressing N. benthamiana leaves; for concentration at which ethylene production is triggered (minimum effective concentration): dose-dependent ethylene bioassay; for Ethylene, MW: RepFig 3a_2, H2O. On the procedure: (§1) All obtained extracts or collected fractions after each purification step, as well as the isolated CrGRP or synthesized Crip peptides were tested for bioactivity in the ethylene assay as previously described. For this we cut leaf samples of analyzed plants in 3 × 3 mm squares and float them on a water surface. After incubation over night at RT, three leaf pieces are carefully collected into glass tubes (6 ml) with 500 µl water. Samples were treated as indicated as well as amounts of used extracts or concentrations of peptides. After treatment tubes were sealed with a rubber plug and incubated at RT on a horizontal shaker (85–100 rpm) for 3 h. All samples were analyzed with a Gaschromatograph (Shimadzu, GC-2014, glass column 3 mm × 1.6 m with Al2O3) by manually injecting 1 ml of the gaseous phase.

The subject of the next series is N. benthamiana wt. The experiment in a line: Ethylene bioassay, leaf pieces of wildtype N. benthamiana. In kind it is cell-based. On the procedure: as §1
The test system of another series is S. lycopersicum. The experiment in a line: Ethylene bioassay, leaf pieces of cultivated tomato. As to conditions: Suppl.Fig6c, peptides applied at 5 µM each, mean of the samples. It counts as cell-based. The method, then:
as §1

Series [3] deals with leaves of S. lycopersicum, IL 12-2, IL 8-1-1 and S. pennellii. The experiment in a line: Hypersensitive response (HR) cell death after peptide infiltration into tomato leaves. In kind it is in vivo. As to conditions: 7 days. The method, then: For monitoring hypersensitive responses (HR) in leaves, 35S::CrGRP:GFP or 35S::GFP constructs were expressed in either transgenic, CuRe1-expressing or wt N. benthamiana plants. Leaves were infiltrated as described above using the defined volume of 200 µl; infiltration area was carefully labeled with a black marker. Pictures were taken 7 days post infiltration. For detecting HR-symptoms in tomato plants, two leaves of three plants (six leaves total; per introgression line or wildtype) were infiltrated with 100 µl of a 100 nM peptide solution; infiltrated leaf area was labeled with a pen immediately after infiltration and photographs were taken 7 days post peptide infiltration.

A short description of series [4]: MS analysis of Crip21 treated with NH4OH or ethylamine. It counts as physicochemical. As to conditions: 12.5% NH4OH or 70% ethylamine. The method, then:
The Cuscuta factor (CuF) could be inactivated by incubating it either with 12.5% NH4OH or 70% ethylamine for 1 h at 45 °C.
49 Supplementary Fig. 5. Inactivation of Crip21 by treatments with NH4OH or Ethylamine; (a) Crip21
51 biosynthesis in CuRe1-expressing N. benthamiana leaves. Peptide samples were applied at
52 concentrations of 100 nM. Bovine serum albumin (BSA; 0.01 mg/ml) buffered in 25 mM MES (pH
53 5.7) was added as mock control. FW, fresh weight; ethylene measurements show means of three
54 technical replicates; error bars denote SD. (b) incubation with NH4OH or Ethylamine leads to
56 products with different masses.
(1 picture or pasted object on this page, not shown here)

Series [5] deals with CuRe1. The series can be described thus: Affinity-crosslinking of bio-Crip29 with CuRe1 in planta. In kind it is binding, S. lycopersicum (tomato), expressed in N. benthamiana. The method, then: In vivo cross-linking of biotin-Crip29 (Crip29 aa-sequence: […]) to CuRe1 was performed as described; leaves of N. benthamiana expressing 35S::CuRe1:myc, or control plants (N. benthamiana expressing 35S::RLP23:myc) were infiltrated with biotinylated bio-Crip29 (10 nM in ddH2O) with or without unlabeled Crip21 (or unlabeled Crip82-106) (10 μM) as competitor or with flg22 peptide as competition control. Five minutes after peptide treatment 2 mM EGS (ethylene glycol bis(succinimidyl succinate) in 25 mM HEPES buffer (pH 7.5) was infiltrated into the same leaves for cross-linking of peptides to the receptor proteins. Twenty minutes after cross-linking, leaf samples were harvested and frozen in liquid nitrogen; immunoprecipitations were performed against the myc tag present at the c-terminus of CuRe1 using myc-trap agarose beads (ChromoTek, IZB Martinsried, Germany) as described above. All peptides, including biotinylated bio-Crip29, were synthesized by GenScript® and ordered with a purity of >95%. Biotinylated Crip29 was detected on blots by Streptavidine-conjugated Alkaline Phosphatase (Strep-AP, Roche diagnostics; Streptavidin-AP conjugate, Cat. No.: 11089161001, dilution: 1:1000 in 5% Albumin Fraction V, biotin-free).

Where [6] appears, read: RepFig3b_2, 0.01 nM, mean of 3 samples.
[7] abbreviates: RepFig3b_2, 0.1 nM, mean of 3 samples.
The mark [8] stands for this setting: RepFig3b_2, 1 nM, mean of 3 samples.
Setting [9] is: RepFig3b_2, 10 nM, mean of 3 samples.
Where [10] appears, read: RepFig3b_2, 100 nM, mean of 3 samples.
[11] abbreviates: Fig3a + Supl4, N. benthamiana CuRe1, peptide 1 nM, mean of 3 technical replicates.
Where [12] appears, read: Fig3a + Supl4, N. benthamiana CuRe1, peptide 10 nM, mean of 3 technical replicates.
The mark [13] stands for this setting: Fig3a + Supl4, N. benthamiana CuRe1, peptide 100 nM, mean of 3 technical replicates.

In the case of CrGRP82-106 synthetic peptide, the ethylene production in CuRe1-expressing N. benthamiana, dose series of peptide in series [1] is greater than 0.1 nM.

With “Crip21: 21 aa cysteine-rich peptide, minimal epitope of C. reflexa glycine-rich protein CrGRP, synthesized (NCGNSGCCGGAYSNGQCKRCC)”, the “ethylene-inducing bioactivity after treatment with NH4OH” value in the series on CuRe1 [2] (12.5% NH4OH, 1 h at 45 °C, read-out ethylene in CuRe1 N. benthamiana, peptide 100 nM) was “lost all of its activity”. Further, the “ethylene-inducing bioactivity after treatment with ethylamine” value with CuRe1 [2] (70% ethylamine, 1 h at 45 °C, read-out ethylene in CuRe1 N. benthamiana, peptide 100 nM) was “loose activity”. Further, the “activity in CuRe1-dependent ethylene induction (in words)” value (shortened to “activity … (in words)”) in the series on CuRe1 [2] is reported as “full activity”. The “concentration at which ethylene production is triggered (minimum effective concentration)” value in the series with CuRe1 [2] is greater than 0.1 nM. Besides, the “ethylene, average” value with CuRe1 [2] (Fig3a + Supl4, N. benthamiana CuRe1, amount printed as 1 µl, mean of 3 technical replicates) worked out at 10; in the series on CuRe1 [2] (setting [6]) it was 0.2767; with CuRe1 [2] (setting [7]) it was 1.39; with CuRe1 [2] (setting [8]), 4.143; in the series on CuRe1 [2] (setting [9]), 8.283; in the series on CuRe1 [2] (setting [10]), 9.4. The “ethylene, average” value with CuRe1 [2] (Suppl.Fig5, N. benthamiana CuRe1, peptide samples 100 nM, untreated or treated with 12.5% NH4OH / 70% ethylamine, mean of 9 samples, values <0.2 not collected) was found to be 3.844; with CuRe1 [2] (Suppl.Fig6b, N. benthamiana CuRe1, 0.01 nM, mean of 3), 0.375 pmol/ml air; in the series on CuRe1 [2] (Suppl.Fig6b, N. benthamiana CuRe1, 0.1 nM, mean of 3), 0.45 pmol/ml air; with CuRe1 [2] (Suppl.Fig6b, N. benthamiana CuRe1, 1 nM, mean of 3), 1.1 pmol/ml air; in the series on CuRe1 [2] (Suppl.Fig6b, N. benthamiana CuRe1, 10 nM, mean of 3), 2.8 pmol/ml air; with CuRe1 [2] (Suppl.Fig6b, N. benthamiana CuRe1, 100 nM, mean of 3), 11.3 pmol/ml air. The “ethylene, average” value in the series with CuRe1 [2] (Suppl.Fig6b, N. benthamiana CuRe1, 1000 nM, 3 leaf pieces + 0.5 ml H2O / 6 ml tube, 3 h RT, mean of 3) was 11.6 pmol/ml air; in the series with N. benthamiana wt (Fig3a + Supl4, amount printed as 1 µl, mean of 3), 0.2667; in the series with N. benthamiana wt (Suppl.Fig5, peptide samples 100 nM, mean of 3, values <0.2 not collected), 0.2. In addition, the “ethylene measurement, average” value turned out to be 9.564 in the series with CuRe1 [2] (Suppl.Fig6c, N. benthamiana Cure1, peptides applied at 5 µM each, mean of the samples); 0.1967 in the series with N. benthamiana wt (Suppl.Fig6c, peptides applied at 5 µM each, mean of the samples); 20.1539 with S. lycopersicum. Besides, the “HR-type cell death, plants lacking CuRe1” value in series [3] (leaves of S. pennellii and IL8-1-1 infiltrated with 100 nM peptide) is listed as “did not”. Besides, the “HR-type cell death, plants with functional CuRe1” value in series [3] (leaves of cultivated tomato (S. lycopersicum) or IL 12-2 infiltrated with 100 nM peptide) is given as “showed Crip21-dependent cell death”. The “peptide mass signal after incubation with NH4OH or ethylamine” value in series [4] was “disappearance of the peptide mass signal”.

On to “GGGGSGHGGHGKGKN [GRP15, 15 aa peptide that served as fingerprint for identification of CrGRP]”, for which the “activity … (in words)” value with CuRe1 [2] is “completely inactive”. Moreover, the “ethylene, average” value in the series with CuRe1 [2] (setting [11]) was 0,2 and 0.2127; in the series on CuRe1 [2] (setting [12]), 0,3 and 0.2733; in the series with CuRe1 [2] (setting [13]), 0,6 and 0.5933; in the series on CuRe1 [2] (Fig3a + Supl4, N. benthamiana CuRe1, peptide 1000 nM, mean of 3 technical replicates), 0,4 and 0.3733. Moreover, the “activity at 100 µM” value with CuRe1 [2] (authors' reply in peer review file, refers to Supplementary Fig. 4) is given as “no activity”.

As for “GKGKNCGNSGCCGGAYSNGQCKRCCAYKG [bio-Crip29]”, in the series with CuRe1 [2], the “activity … (in words)” value was “as active as Crip21”. The “ethylene, average” value worked out at 0.2933 with CuRe1 [2] (setting [6]); 0.34 in the series on CuRe1 [2] (setting [7]); 1.017 in the series with CuRe1 [2] (setting [8]); 5.31 in the series on CuRe1 [2] (setting [9]); 7.693 in the series with CuRe1 [2] (setting [10]). In addition, the “biotin labelling of CuRe1 immunoprecipitates” value with CuRe1 [5] (bio-Crip29 10 nM infiltrated, crosslinked with 2 mM EGS, myc-trap IP, Strep-AP blot) was “clear labelling”.

On to “GKNCGNSGCCGGAYSNGQCKRCCAY [CrGRP82-106, synthetic peptide representing CrGRP residues 82-106]”, for which the “concentration at which ethylene production is triggered (minimum effective concentration)” value in the series with CuRe1 [2] is listed as no less than 0.1 nM. The “ethylene, average” value with CuRe1 [2] (setting [11]) is recorded as 5.823; in the series on CuRe1 [2] (setting [12]), 8.73; in the series on CuRe1 [2] (setting [13]) it was 9.817; with CuRe1 [2] (setting [6]), 0.29; in the series on CuRe1 [2] (setting [7]), 1.63; in the series on CuRe1 [2] (setting [8]), 3.067. For the same substance, the “ethylene, average” value in the series with CuRe1 [2] (setting [9]) was found to be 8.457; in the series with CuRe1 [2] (setting [10]), 11.2833; with N. benthamiana wt (Fig3a + Supl4, peptide 100 nM, mean of 3) it was 0.2267. Further, the “Ethylene, MW” value is listed as 1.5 pmol/ml air in the series on CuRe1 [2] (1 nM, 3 h RT, mean of 3 samples); 4.6 pmol/ml air in the series on CuRe1 [2] (10 nM, 3 h RT, mean of 3 samples); 8.9 pmol/ml air with CuRe1 [2] (100 nM, 3 h RT, mean of 3 samples).

As to “non-modified Crip: unlabeled Crip21 or Crip82-106 (10 µM) used as competitor in crosslinking (NCGNSGCCGGAYSNGQCKRCC)”, the “competition of bio-Crip29 labelling of CuRe1” value in the series with CuRe1 [5] (bio-Crip29 10 nM with excess competitor (10 µM)) is “absent”.
